The source of these data is patent US5476661A, “Compositions for topical application to skin, hair and nails” (Elizabeth Arden Co., Division of Conopco, Inc., priority 1994, dated 1995).

For data set [1] the following is noted: cited from earlier work.
The subject of data set [2] is keratinocytes. To be noted: cited from earlier work.
In data set [3] the test system is normal human keratinocytes. Put plainly: DNA synthesis rate (3H-thymidine incorporation) in normal human keratinocytes. It is filed as cell-based. Conditions: Homo sapiens, Keratinocyte; for activity at 1 µM: 1000 nM. From the text:
Initiation of differentiation of keratinocytes is accompanied by inhibition of their growth. The rate of synthesis of DNA determined by the incorporation of radiolabeled substrate [^3 H] thymidine, is an indicator of the rate of growth of the cells. A decrease in DNA synthesis therefore indicates decrease in growth and increase in differentiation of keratinocytes.
Methodology Used for Determining the Rate of DNA Synthesis in Keratinocytes After Treatment With Various Actives
1. Normal human keratinocytes isolated from neonatal foreskins by trypsin treatment were grown in DME medium/10% fetal calf serum in the presence of irradiated 3T3 mouse fibroblasts for establishing dividing keratinocyte colonies. Keratinocytes were grown under the above condition until their third passage.
2. For the experiments, third passage keratinocytes were plated into a serum-free keratinocyte growth medium (KGM; obtained from Clonetics Corporation, San Diego, Calif.) containing 0.15 mM calcium. 20,000 to 30,000 cells were plated into each well of 24 well cell culture plates and grown for 5 days, until the cells reach about 80% confluence.
3. Medium was changed to fresh medium and the various test materials were added to the medium from an ethanolic stock solution (10 A.M.). The final ethanol concentration in the cultures was kept below 0.2%. Control cultures received no tested material but were dosed with 0.2% ethanol. Each compound or combination was tested in three separate wells. By 4 P.M., 1 uCi of ^3 H-thymidine (AmerSham Corp., Sp activity 40 Ci/mmol) was added to the 1 ml medium in each well. The cells were incubated overnight and 24 hours later (10 A.M. next day) the amount of ^3 H-thymidine associated with the cellular DNA of keratinocytes was assessed as described below.
4. The medium was aspirated, and the wells washed with 1 ml phosphate-buffered saline. The DNA and proteins of the cells in the plate were then precipitated by adding 1 ml of ice-cold 10% trichloroacetic acid (TCA). The plates were left on ice for 30 minutes to complete the precipitation process. TCA was then aspirated and each well was then washed four times with 5% TCA. The plates were then dried on a filter pad and the cells in the wells were dissolved in 0.5 ml of 0.1N sodium hydroxide. The sodium hydroxide was then neutralized using 0.1N hydrochloric acid and the solution (1 ml total volume) was then transferred to a scintillation vial. 100 ul samples from each vial were used for protein assay using BCA protein assay reagent obtained from Pierce Chemical Company. 8 ml of a scintillation fluid (Ecolume) was added to the rest of the solution in the vial, and the vials were counted in a scintillation counter to determine the amount of radioactivity in each vial. The DNA synthesis rate was then calculated as cpm ^3 H thymidine incorporated into total cellular DNA/microgram of cell protein for each individual well. Mean and standard deviation for each group was also calculated.
5. All lipids listed in Tables 1-5 below were synthesized in-house. 25-OH-D3 and 1,25-(OH)2 D3 were obtained from Hoffman La Roche. Vitamin D3 was obtained from Sigma.

In data set [4] the test system is normal human keratinocytes. As to the kind of experiment: Vitamin D3 metabolites' uptake by keratinocytes (cell associated radioactivity). It is filed as in vitro ADME. Conditions: for Uptake by keratinocytes, cell associated radioactivity: 60 picomolar, mean of duplicate. On the procedure: Normal human keratinocytes were grown to confluence in Keratinocyte growth medium (KGM) containing 0.15 mM calcium. Medium was changed to fresh medium. The cells were then incubated in duplicate with 10,000 cpm (60 picomolar, or 25 picogram/ml medium) of 25-OH-D3 or 1,25-(OH)2 D3 for various times (0 to 240 minutes). At different time intervals indicated in the Table below, the medium of appropriate wells were aspirated, and the wells were washed three times with a 0.2% bovine serum albumin solution in 50 mM Tris/0.15M sodium chloride buffer pH 7.4. After the wash the cells in the wells were dissolved in 0.1N sodium hydroxide, neutralized with 0.1N hydrochloric acid, mixed with 5 ml of scintillation fluid (Ecolume) and counted in a beta counter. The amount of cpm associated with the cells was calculated as the percent of total cpm added for each time point studied. Data in the table is expressed as cell associated radioactivity as % of total added. Each reported result is a mean of duplicate determinations.

The test system of data set [5] is keratinocytes. To be noted: Bikle et al., cited from earlier work.
The test system of data set [6] is HL-60 cells (human myelocytic leukemia cells). Conditions: cited from earlier work.

Read-outs that look alike come from different tables or passages of the source.

`C=C1/C(=C\C=C2/CCC[C@]3(C)[C@@H]([C@H](C)CCCC(C)(C)O)CC[C@@H]23)C[C@@H](O)C[C@@H]1O` [1,25-(OH)2 D3, 1,25-dihydroxycholecalciferol]: the “toxicity of higher blood levels” value in data set [1] (higher levels of 1,25-(OH)2 D3 in blood) is “increase blood calcium levels and may cause heart problems, muscle weakness and contraction which may be fatal”. In data set [1] (in vivo), the “blood level after topical application” value is given as “increases blood level of 1,25-(OH)2 D3”. Further, the “effect on DNA synthesis and differentiation of keratinocytes” value in the data set on keratinocytes [2] (exogenous or endogenous, Pillai et al., Hashimoto et al.) is “inhibits DNA synthesis (i.e., inhibits growth) and induces differentiation of keratinocytes”. Besides, the activity at 0.001 µM in data set [3] (read-out: DNA synthesis of keratinocytes, Table 1, compound alone, 1 nM, Test 1) amounted to 115 ± 7.7%. Besides, the activity at 0.01 µM in data set [3] (read-out: DNA synthesis of keratinocytes, Table 1, compound alone, 10 nM, Test 1) was determined as 108 ± 8.7%; in data set [3] (read-out: DNA synthesis of keratinocytes, Table 1, compound alone, 10 nM, Test 2) it was 91.9 ± 5.3%; in data set [3] (read-out: DNA synthesis of keratinocytes, Table 1, compound alone, 10 nM, Test 3), 91.8 ± 4.5%; in data set [3] (read-out: DNA synthesis of keratinocytes, Table 4, 10 nM vitamin D3 or metabolite, no ceramide), 91.8 ± 4.6%. The activity at 0.1 µM in data set [3] (read-out: DNA synthesis of keratinocytes, Table 1, compound alone, 100 nM, Test 1, * = statistically significant growth inhibition) stood at 102 ± 16.7%; in data set [3] (read-out: DNA synthesis of keratinocytes, Table 1, compound alone, 100 nM, Test 2, * = statistically significant growth inhibition), 86 ± 7.7%; in data set [3] (read-out: DNA synthesis of keratinocytes, Table 1, compound alone, 100 nM, Test 3), 90.3 ± 9.5%; in data set [3] (read-out: DNA synthesis of keratinocytes, Table 4, 100 nM vitamin D3 or metabolite, no ceramide), 90.3 ± 9.5%. In addition, the activity at 1 µM in data set [3] (read-out: DNA synthesis of keratinocytes, Table 1, compound alone, Test 1, * = statistically significant growth inhibition) stood at 71.5 ± 2.9%; in data set [3] (read-out: DNA synthesis of keratinocytes, Table 1, compound alone, Test 2, * = statistically significant growth inhibition) it was 56.3 ± 14.1%. In data set [3] (read-out: concentration at which statistically significant cell growth inhibition was consistently observed), the minimal effective concentration was found to be 1 µM. The “Uptake by keratinocytes, cell associated radioactivity” value in data set [4] (0 minutes) is reported as 0.8 % of total added; in data set [4] (2 minutes) it was 2.7 % of total added; in data set [4] (5 minutes) it was 4.2 % of total added; in data set [4] (10 minutes), 13.0 % of total added; in data set [4] (15 minutes), 10.0 % of total added; in data set [4] (30 minutes), 20.0 % of total added. For the same compound, the “Uptake by keratinocytes, cell associated radioactivity” value is 15.6 % of total added in data set [4] (60 minutes), 26.2 % of total added in data set [4] (120 minutes) and 30.8 % of total added in data set [4] (240 minutes). In addition, the “uptake rate by keratinocytes / skin cells” value in data set [4] (Table 6 summary) was “rapidly taken up”. The “catabolism to inactive metabolites by keratinocytes” value in the data set on keratinocytes [5] is “catabolized to inactive metabolites rapidly”. Also, the “degradation within skin cells” value in the data set with keratinocytes [5] (exogenously added) is recorded as “rapidly degraded within the skin cells”.

As to `CC1=C(/C=C/C(C)=C/C=C/C(C)=C/C(=O)O)C(C)(C)CCC1` [retinoic acid], the HL-60 cell differentiation entry in data set [6] was “induces differentiation of HL-60 cells”. In addition, the keratinocyte differentiation result in the data set on keratinocytes [2] is listed as “prevents differentiation of keratinocytes”.
